In patent US8044089B2, “3-3-di-substituted-oxindoles as inhibitors of translation initiation” (President and Fellows of Harvard College, priority 2004, dated 2011):
Where two headings read alike, the source gives them in different places.

Assays:
[1] = tested on: intracellular Ca^2+ stores; experiment: Ca2+ release from intracellular stores (FURA-2AM loaded cells); type: cell-based; set-up: key to Ca^2+ (Ca^2+ release from intracellular stores): a “+” denotes release; a “+/−” denotes inconclusive
Description: As a non-limiting example, compounds 1272 and 1273 (set forth in Table 1) were synthesized starting from 3-bromoaniline, which upon condensation with hydroxylamine and chloral hydrate followed by concentrated sulfuric acid yielded an inseparable regioisomeric mixture of 4- and 6-bromo isatins. The addition of the two phenyl groups to the three position of the oxindole allowed easy chromatographic separation of the 4- and 6-bromo-3,3-diphenyloxindoles 1272 and 1273. Table 1 sets forth biological data for diaryloxindole compounds including, but not limited to 1272 and 1273. For Tables 1-14, Ca^2+ refers to Ca^2+ release from intracellular stores where a “+” denotes release and a “+/−” denotes inconclusive; eIF2α-P refers to phosphorylation of eIF2α measured by Western blot; SRB refers to the inhibitory concentration to reduce cell growth by 50% (IC50) for growth inhibition of A549 lung cancer cells; and n.d. is not determined.
Without intending to be bound by theory, the mechanism of action of translation initiation inhibitors is set forth in FIG. 1, and includes the depletion (complete or partial depletion) of intracellular calcium (Ca^2+) stores and phosphorylation of eIF2α. Compounds synthesized using the approaches described herein were screened for their ability to partially deplete intracellular Ca^2+ stores using FURA-2AM loaded cells (Benzaquen et al. (1995) Nature Medicine, 1:534, incorporated herein by reference in its entirety for all purposes). A limited subset of compounds were further screened for their ability to deplete endoplasmic reticulum (ER) Ca^2+. The Ca^2+ content of the ER was monitored using ER-targeted, Ca^2+ sensitive, recombinant proteins. These recombinant proteins emitted light by fluorescent resonance energy transfer (FRET) as a function of the Ca^2+ content of the medium. Such assays are previously described (Miyawaki, A.; Mizuno, H.; Llopis, J.; Tsien, R. Y.; Jalink, K. Cameleons as cytosolic and intra-organellar calcium probes, Oxford University Press: Oxford, London, 2001; pp 3-16, incorporated herein by reference in its entirety for all purposes). Compounds that depleted Ca^2+ were further evaluated for their ability to phosphorylate eIF2α. eIF2α phosphorylation was measured by Western blot analysis using the phospho-specific anti-eIF2α antibody, as previously described (Aktas et al. (1998) Proc. Natl. Acad. Sci. USA, 95:8280, incorporated herein by reference in its entirety for all purposes).

A549 lung cancer cells = experiment: SRB growth inhibition of A549 lung cancer cells; type: cell-based, human; conditions: A549 lung cancer cells, unit inferred, read-out: SRB (IC50 for growth inhibition of A549 lung cancer cells)
Description: As a non-limiting example, compounds 1272 and 1273 (set forth in Table 1) were synthesized starting from 3-bromoaniline, which upon condensation with hydroxylamine and chloral hydrate followed by concentrated sulfuric acid yielded an inseparable regioisomeric mixture of 4- and 6-bromo isatins. The addition of the two phenyl groups to the three position of the oxindole allowed easy chromatographic separation of the 4- and 6-bromo-3,3-diphenyloxindoles 1272 and 1273. Table 1 sets forth biological data for diaryloxindole compounds including, but not limited to 1272 and 1273. For Tables 1-14, Ca^2+ refers to Ca^2+ release from intracellular stores where a “+” denotes release and a “+/−” denotes inconclusive; eIF2α-P refers to phosphorylation of eIF2α measured by Western blot; SRB refers to the inhibitory concentration to reduce cell growth by 50% (IC50) for growth inhibition of A549 lung cancer cells; and n.d. is not determined. […]

IC50 (A549 lung cancer cells) | IC50 (A549 lung cancer cells; Homo sapiens) | Compound | Ca^2+ (Ca^2+ release from intracellular stores) [1]
< 1 µM |  | CC(C)(C)c1ccc(S(=O)(=O)Nc2cc(O)ccc2C2(c3ccccc3)C(=O)Nc3ccccc32)cc1 (stereo not shown) [Compound 1623] | +
> 20 µM |  | CC(C)(C)c1ccc(O)c(C2(c3ccccc3)C(=O)N(CC(=O)O)c3ccccc32)c1 (stereo not shown) [Compound 1339] | 
3 µM |  | CC(C)(C)c1ccc(O)c(C2(c3c(F)c(F)c(F)c(F)c3F)C(=O)Nc3ccccc32)c1 (stereo not shown) [Compound 1328] | +
> 20 µM |  | CCCCOc1ccc(S(=O)(=O)N2C(=O)C(c3ccccc3)(c3ccccc3)c3ccccc32)cc1 [Compound 1306] | 
14 µM |  | O=C1N(Cc2ccc(Cl)cc2)c2ccccc2C1(c1ccccc1)c1ccccc1 [Compound 1302] | 
10 µM |  | O=C1N(CO)c2ccccc2C1(c1ccccc1)c1ccccc1 [Compound 1304] | 
> 20 µM |  | COc1ccc(C2(c3ccccc3)C(=O)Nc3ccccc32)c(CC(=O)O)c1 (stereo not shown) [Compound 1327] | 
12 µM |  | O=C1Nc2ccccc2C1(c1ccc(O)cc1)c1ccc(Oc2ccccc2)cc1 (stereo not shown) [Compound 1260] | +
< 1 µM |  | CC(C)(C)c1ccc(S(=O)(=O)Nc2ccc(C3(c4ccccc4)C(=O)Nc4ccccc43)c(O)c2)cc1 (stereo not shown) [Compound 1624] | +
11 µM |  | CC(=O)Nc1ccc(S(=O)(=O)N2C(=O)C(c3ccccc3)(c3ccccc3)c3ccccc32)cc1 [Compound 1308] | 
11 µM |  | CC(C)(C)c1ccc(S(=O)(=O)N2C(=O)C(c3ccccc3)(c3ccccc3)c3ccccc32)cc1 [Compound 1311] | 
3 µM |  | CC(C)(C)c1ccc(S(=O)(=O)Nc2ccc(O)c(C3(c4ccccc4)C(=O)Nc4ccccc43)c2)cc1 (stereo not shown) [Compound 1638] | +
8 µM |  | O=C1N(c2ccccc2)c2ccccc2C1(c1ccccc1)c1ccccc1 [Compound 1300] | 
 | 4 µM | CC(C)(C)c1ccc(OCC#N)c(C2(c3ccccc3)C(=O)N(CC#N)c3ccccc32)c1 (stereo not shown) [Compound 1320] | 
 | > 20 µM | CC(C)(C)c1ccc2c(c1)C1(c3ccccc3)C(=O)N(C/C=C\CO2)c2ccccc21 (stereo not shown) [Compound 1291] | 
3 µM |  | CC(C)(C)c1ccc(O)c(C2(c3ccccc3)C(=O)Nc3ccc(N=[N+]=[N-])cc32)c1 (stereo not shown) [Compound 1348] | +
8 µM |  | O=C1Nc2ccc(OC(F)(F)F)cc2C1(c1ccccc1)c1ccccc1 [Compound 1263] | +
4 µM |  | CC(C)(C)c1ccc(O)c(C2(c3ccccc3)C(=O)Nc3ccc(F)cc32)c1 (stereo not shown) [Compound 1312] | +
3 µM |  | CC(C)(C)c1ccc(O)c(C2(c3ccccc3)C(=O)Nc3cc(Cl)ccc32)c1 (stereo not shown) [Compound 1429] | +
3 µM |  | CC(C)(C)c1ccc(O)c(C2(c3ccccc3)C(=O)Nc3cccc(Cl)c32)c1 (stereo not shown) [Compound 1428] | +
10 µM |  | O=C1Nc2ccccc2C1(c1ccc(O)cc1)c1ccc(-c2ccccc2)cc1 (stereo not shown) [Compound 1261] | +
3 µM |  | CC(C)(C)c1ccc(OC(=O)CCCC(=O)NO)c(C2(c3ccccc3)C(=O)Nc3ccccc32)c1 (stereo not shown) [Compound 1323] | +
14 µM |  | Cc1cc(C2(c3ccccc3)C(=O)Nc3ccccc32)c(NS(C)(=O)=O)cc1O (stereo not shown) [Compound 1427] | +
> 20 µM |  | O=C1Nc2ccccc2C1(c1ccc(O)cc1)c1ccc(O)cc1 [Compound 1259] | 
16 µM |  | CC(C)(C)c1ccc(OC(=O)CCCCCCC(=O)O)c(C2(c3ccccc3)C(=O)Nc3ccccc32)c1 (stereo not shown) [Compound 1321] | +
> 20 µM |  | O=C1N(S(=O)(=O)c2ccc(Oc3ccccc3)cc2)c2ccccc2C1(c1ccccc1)c1ccccc1 [Compound 1307] | 
> 20 µM |  | Cc1cc(C2(c3ccccc3)C(=O)Nc3c(C(=O)O)cccc32)c(NS(=O)(=O)c2ccc(C(C)(C)C)cc2)cc1O (stereo not shown) [Compound 1431] | 
> 20 µM |  | CC(=O)Nc1cc(O)c(C)cc1C1(c2ccccc2)C(=O)Nc2ccccc21 (stereo not shown) [Compound 1639] | 

Second part, the compound before the results:

Compound | IC50 (A549 lung cancer cells) | IC50 (A549 lung cancer cells; Homo sapiens) | Ca^2+ (Ca^2+ release from intracellular stores) [1]
O=C1NC(=O)C(Cc2ccc(O)c(C3(c4ccccc4)C(=O)Nc4ccccc43)c2)S1 (stereo not shown) [Compound 1220] | 16 µM |  | +/−
O=C1Nc2ccccc2C1(c1ccccc1)c1cc(O)ccc1O (stereo not shown) [Compound 1201] |  |  | +
COC(=O)C(N)Cc1ccc(O)c(C2(c3ccccc3)C(=O)Nc3ccccc32)c1 (stereo not shown) [Compound 1171] |  |  | +
C=CCOCN1C(=O)C(c2ccccc2)(c2cc(C(C)(C)C)ccc2O)c2ccccc21 (stereo not shown) [Compound 1227] | 3 µM |  | +
O=C1Nc2ccccc2C1(c1cccc(Cl)c1)n1ccnc1 (stereo not shown) [Compound 1314] | > 20 µM |  | +
CC(C)(C)c1ccc(O)c(C2(c3ccccc3)C(=O)Nc3c(Br)cccc32)c1 (stereo not shown) [Compound 1196] | 3 µM |  | +
CC(C)(C)c1cccc(C2(n3ccnc3)C(=O)Nc3ccccc32)c1 (stereo not shown) [Compound 1318] | 2 µM |  | +
CN(C)CCCCOc1ccc(O)c(C2(c3ccccc3)C(=O)Nc3ccccc32)c1 (stereo not shown) [Compound 1216] | > 20 µM |  | +/−
NCCCCOc1ccc(O)c(C2(c3ccccc3)C(=O)Nc3ccccc32)c1 (stereo not shown) [Compound 1228] | 5 µM |  | +
O=C1Nc2ccccc2C1(c1cccc(F)c1)n1ccnc1 (stereo not shown) [Compound 1316] | > 20 µM |  | 
Cc1cccc(C2(n3ccnc3)C(=O)Nc3ccccc32)c1 (stereo not shown) [Compound 1317] | > 20 µM |  | 
CC(C)(C)c1cccc(C2(c3ccc(O)cc3)C(=O)Nc3ccccc32)c1 (stereo not shown) [Compound 1232] | 4 µM |  | +
Cc1cc(O)c(NS(=O)(=O)c2ccc(C(C)(C)C)cc2)cc1C1(c2ccccc2)C(=O)Nc2ccccc21 (stereo not shown) [Compound 1648] |  |  | +
CC(C)(C)c1ccc(O)c(C2(c3cc(C(C)(C)C)ccc3O)C(=O)Nc3ccccc32)c1 [Compound 1195] | 3 µM |  | +
C=CCCCOc1ccc(O)c(C2(c3ccccc3)C(=O)Nc3ccccc32)c1 (stereo not shown) [Compound 1202] | 6 µM |  | +
O=C1Nc2ccccc2C1(c1ccccc1)c1cc(OCCCCBr)ccc1O (stereo not shown) [Compound 1203] | 8 µM |  | +
O=C1Nc2ccccc2C1(c1ccccc1)c1cc(C(F)(F)F)ccc1O (stereo not shown) [Compound 1243] | > 20 µM |  | 
CN1C(=O)C(c2ccccc2)(c2ccccc2)c2ccccc21 [Compound 1301] |  |  | +
CN(C)CCCCOc1cccc(C2(c3ccccc3)C(=O)Nc3ccccc32)c1O (stereo not shown) [Compound 1199] | > 20 µM |  | +
CC(C)(C)c1ccc(O)c(C2(c3ccccc3)CNc3ccccc32)c1 (stereo not shown) [Compound 1182] | 12 µM |  | +
CC(C)(C)c1ccc(O)c(C2(c3ccccc3)C(=O)N(c3ccccc3)c3ccccc32)c1 (stereo not shown) [Compound 1255] | 4 µM |  | 
[N-]=[N+]=NCCCCOc1ccc(O)c(C2(c3ccccc3)C(=O)Nc3ccccc32)c1 (stereo not shown) [Compound 1219] | 5 µM |  | +
O=C1Nc2ccccc2C1(c1ccccc1)n1ccnc1 (stereo not shown) [Compound 1315] | > 20 µM |  | 
